# Measured values from patent US20240059704A1, “Cereblon Ligands and Uses Thereof” (REGENTS OF THE UNIVERSITY OF MICHIGAN, priority 2022, published 2024).
# Counter-ions that a name gives are not always drawn.
# Key:
# CRBN/DDB1 = CRBN/DDB1 (Homo sapiens (Human), UniProt Q96SW2); details: HTRF, His tagged CRBN+DDB-DLS7+CXU4, Cy5-labeled Thalidomide probe; read-out: CRBN Binding IC50
# Protocol: The binding potency was determined using HTRF assay technology (Perkin Elmer). Compounds were serially diluted in DMSO and 0.2 μL volume was transferred to white 384-well plate.
# [1] = target: wild-type human CRBN protein (Homo sapiens (Human), UniProt Q96SW2); experiment: Cereblon Binding Assay (Cisbio Cereblon Binding Kit, TR-FRET); details: GST-tagged wild-type human CRBN, XL665-labelled Thalidomide
# Protocol: The binding to cereblon (CRBN) was determined using the Cereblon Binding Kit (Cisbio, #64BDCRBNPEG) following the manufacturer's instruction. Briefly, serially diluted compounds were incubated with GST-tagged wild-type human CRBN protein, XL665-labelled Thalidomide and Europium Cryptate labelled GST antibody at room temperature for about 3 hours. Time Resolved Fluorescence Resonance Energy Transfer (TR-FRET) measurements were acquired on a CALRIOstar plate reader with MARS data analysis software (BMG Labtech), with the following settings: 665/10 nm and 620/10 nm emission, 60 […]. The TR-FRET ratio was taken as the 665/620 nm intensity ratio.
# ER = ER (Homo sapiens (Human), UniProt P03372); experiment: In-cell western blot analysis (ICW), relative ER percentage in treated cells; format: cell-based; details: ER degradation, 16 hours
# Protocol: In-cell western blot analysis. Cells are seeded in multi-well plates (e.g., at 40,000 or 10,000 cells/well). Diluted compounds at certain concentration are added (final 0.5% DMSO) and cells are incubated for certain period of time (e.g., 16 hours). Formaldehyde (e.g., PBS:FA=9:1) is added and followed by washing with PBS. The cells are blocked with Licor blocking buffer (Li-Cor). The relative ER percentage in treated cells were obtained by comparing the values of treated wells to those in untreated and DMSO-treated wells as 100%.
# In-cell western blot analysis. a. seed cells in black-sided/clear bottom 96- or 384-well plates at 40,000 or 10,000 cells/well, overnight; b. add diluted compounds (final 0.5% DMSO), 16 hours. 16 h later, remove medium, add 100 μL or 25 μL of 3.7-4.0% formaldehyde (PBS:FA=9:1), RT 20 min, no shaking; c. wash with PBS, and permeabilized with 100 μL or 25 μL/well of 1×PBS+0.1% Triton X-100 10 minutes; d. block with 100 μL or 25 μL Licor blocking buffer (Li-Cor), RT 1h, moderate shaking; d. Add 100 μL or 25 μL of anti-ER (cs-8644, 1:500-1,000)+GAPDH (Millipore MAB374, 1:1000) in Block+0.05% Tween 20. RT 2h, gentle shaking. Negative control: cells plus secondary antibodies (no primary antibodies); e. wash×4 with PBS+0.05-0.1% Tween 20, gentel shaking; f. anti-rabbit-680 and anti-mouse-800 (both 1:1000 in LiCor block+0.05% Tween20, RT 1h, gentle shaking, no light. LI-COR: 0.2% to reduce background; g. wash×4 with PBS+0.05% Tween 20, gental shaking; h. add 100 μL or 25 μL of PBS to each well and read on CLX plate reader. The relative ER percentage in treated cells were obtained by comparing the values of treated wells to those in untreated and DMSO-treated wells as 100%.
# T47D cell line = experiment: Cell growth inhibition in T47D cell line; format: cell-based; details: Homo sapiens, μM, class key in nM
# Protocol: Cell Growth Assay. The cells were seeded at certain concentration (e.g., at 1500/well) in multi-well plates overnight. Cells are subsequently treated with the compounds. A certain period of time (e.g., 4 days) after the compound treatment, 10% WST-8 reagent was added to the culture medium and incubate under certain condition (e.g., in a CO2 incubator at 37° C. for 2.5 hours). The absorbance is measured on each sample using a microplate reader at certain wavelength (e.g., 450 nm). The relative absorbance is calculated against the vehicle control from three individually repeats.
# Chain of ER (P03372 whole entry): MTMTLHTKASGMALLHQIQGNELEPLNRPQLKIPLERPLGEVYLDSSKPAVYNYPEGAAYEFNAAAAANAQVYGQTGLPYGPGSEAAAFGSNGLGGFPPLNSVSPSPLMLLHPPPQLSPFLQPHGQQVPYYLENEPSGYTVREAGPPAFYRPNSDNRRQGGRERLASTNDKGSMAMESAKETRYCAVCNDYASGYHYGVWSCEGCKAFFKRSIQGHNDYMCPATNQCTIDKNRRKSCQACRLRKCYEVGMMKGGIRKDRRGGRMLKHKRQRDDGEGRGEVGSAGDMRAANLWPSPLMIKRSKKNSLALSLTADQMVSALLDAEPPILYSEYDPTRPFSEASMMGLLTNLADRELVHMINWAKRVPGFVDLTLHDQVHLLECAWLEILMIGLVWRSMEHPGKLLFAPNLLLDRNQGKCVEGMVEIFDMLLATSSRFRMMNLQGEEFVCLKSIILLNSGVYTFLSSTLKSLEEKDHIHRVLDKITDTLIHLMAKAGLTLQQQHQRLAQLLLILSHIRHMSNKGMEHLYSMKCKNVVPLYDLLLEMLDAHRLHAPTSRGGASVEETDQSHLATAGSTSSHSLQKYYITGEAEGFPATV
# Chain of wild-type human CRBN protein (Q96SW2 whole entry): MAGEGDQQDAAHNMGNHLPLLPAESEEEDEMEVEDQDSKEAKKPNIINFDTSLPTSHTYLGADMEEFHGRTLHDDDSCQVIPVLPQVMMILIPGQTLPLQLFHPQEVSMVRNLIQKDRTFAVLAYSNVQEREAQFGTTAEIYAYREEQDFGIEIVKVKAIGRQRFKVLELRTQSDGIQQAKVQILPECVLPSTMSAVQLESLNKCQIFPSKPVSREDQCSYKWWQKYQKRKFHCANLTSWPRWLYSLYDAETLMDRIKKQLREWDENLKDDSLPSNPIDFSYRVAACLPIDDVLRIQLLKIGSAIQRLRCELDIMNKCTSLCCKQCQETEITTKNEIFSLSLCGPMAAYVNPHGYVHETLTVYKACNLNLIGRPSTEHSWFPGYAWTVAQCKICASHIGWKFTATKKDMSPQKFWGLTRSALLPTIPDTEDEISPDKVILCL
# Chain of CRBN/DDB1 (Q96SW2 whole entry): as above
# Chain of CRBN/DDB1 (Q16531 whole entry partner): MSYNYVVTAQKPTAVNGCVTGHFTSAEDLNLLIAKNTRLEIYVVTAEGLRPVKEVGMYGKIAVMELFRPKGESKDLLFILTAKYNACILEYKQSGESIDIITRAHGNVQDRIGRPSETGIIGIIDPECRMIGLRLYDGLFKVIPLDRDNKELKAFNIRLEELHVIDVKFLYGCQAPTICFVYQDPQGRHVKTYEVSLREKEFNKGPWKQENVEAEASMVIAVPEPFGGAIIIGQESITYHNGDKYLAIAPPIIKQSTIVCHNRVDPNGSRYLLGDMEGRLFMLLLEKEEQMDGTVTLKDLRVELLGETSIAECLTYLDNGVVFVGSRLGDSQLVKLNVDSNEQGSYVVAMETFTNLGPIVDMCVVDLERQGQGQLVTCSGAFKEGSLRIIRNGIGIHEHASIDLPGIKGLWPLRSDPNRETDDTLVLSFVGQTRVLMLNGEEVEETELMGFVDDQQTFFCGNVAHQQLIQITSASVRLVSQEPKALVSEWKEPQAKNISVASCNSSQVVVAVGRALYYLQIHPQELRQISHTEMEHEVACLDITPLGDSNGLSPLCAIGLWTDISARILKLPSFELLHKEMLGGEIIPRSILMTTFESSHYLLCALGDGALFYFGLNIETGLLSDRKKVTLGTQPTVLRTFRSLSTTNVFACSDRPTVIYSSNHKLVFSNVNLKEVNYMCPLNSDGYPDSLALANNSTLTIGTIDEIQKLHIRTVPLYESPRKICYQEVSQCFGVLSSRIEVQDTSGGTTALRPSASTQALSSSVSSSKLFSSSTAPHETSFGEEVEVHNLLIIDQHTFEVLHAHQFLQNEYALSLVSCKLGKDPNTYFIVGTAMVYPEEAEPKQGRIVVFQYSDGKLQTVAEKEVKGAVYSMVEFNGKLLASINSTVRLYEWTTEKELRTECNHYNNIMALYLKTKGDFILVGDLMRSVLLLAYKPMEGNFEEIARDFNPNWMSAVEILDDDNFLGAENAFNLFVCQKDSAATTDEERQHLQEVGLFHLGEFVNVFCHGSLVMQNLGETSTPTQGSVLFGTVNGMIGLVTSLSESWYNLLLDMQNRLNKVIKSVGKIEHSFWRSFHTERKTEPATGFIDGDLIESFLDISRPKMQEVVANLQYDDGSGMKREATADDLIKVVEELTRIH
SMILES,IC50 (CRBN/DDB1) [nM],IC50 [1] [nM],DC50 (ER) [nM],IC50 (T47D cell line) [µM]
"O=C1CCC(N2Cc3c(ccc4c3OC3(C=C4)CCNCC3)C2=O)C(=O)N1 (stereo not drawn) [Compound A1, 3-(7′-oxo-7′,9′-dihydro-8′H-spiro[piperidine-4,2′-pyrano[2,3-e]isoindol]-8′-yl)piperidine-2,6-dione]",1100,–,–,–
"O=C1CCC(N2Cc3c(ccc4c3OC3(CCNCC3)CC4)C2=O)C(=O)N1 (stereo not drawn) [Compound A2, 3-(7′-oxo-3′,4′,7′,9′-tetrahydro-8′H-spiro[piperidine-4,2′-pyrano[2,3-e]isoindol]-8′-yl)piperidine-2,6-dione]",620,–,–,–
"O=C1CCC(N2Cc3c(ccc4c3OC3(C=C4)CNC3)C2=O)C(=O)N1 (stereo not drawn) [Compound A3, 3-(7′-oxo-7′,9′-dihydro-8′H-spiro[azetidine-3,2′-pyrano[2,3-e]isoindol]-8′-yl)piperidine-2,6-dione hydrochloride]",1300,–,–,–
"O=C1CCC(N2Cc3c(ccc4c3OC3(CC4)CNC3)C2=O)C(=O)N1 (stereo not drawn) [Compound A4, 3-(7′-oxo-3′,4′,7′,9′-tetrahydro-8′H-spiro[azetidine-3,2′-pyrano[2,3-e]isoindol]-8′-yl)piperidine-2,6-dione hydrochloride]",5200,–,–,–
"O=C1CC[C@H](N2Cc3c(ccc4c3OCC3(CCNCC3)O4)C2=O)C(=O)N1 [Compound B1, (S)-3-(7′-oxo-7′,9′-dihydro-2′H,8′H-spiro[piperidine-4,3′-[1,4]dioxino[2,3-e]isoindol]-8′-yl)piperidine-2,6-dione]",–,330,–,–
"O=C1CCC(N2Cc3c(ccc4c3OCC3(CNC3)O4)C2=O)C(=O)N1 (stereo not drawn) [Compound B2, 3-(7′-oxo-7′,9′-dihydro-2′H,8′H-spiro[azetidine-3,3′-[1,4]dioxino[2,3-e]isoindol]-8′-yl)piperidine-2,6-dione]",–,259,–,–
"O=C1CC[C@H](N2Cc3cc4c(c(F)c3C2=O)OCC2(CCNCC2)O4)C(=O)N1 [Compound B3, (S)-3-(5′-fluoro-6′-oxo-6′,8′-dihydro-3′H,7′H-spiro[piperidine-4,2′-[1,4]dioxino[2,3-f]isoindol]-7′-yl)piperidine-2,6-dione]",–,1730,–,–
"O=C1CC[C@H](N2Cc3cc4c(cc3C2=O)OCC2(CNC2)O4)C(=O)N1 [Compound B4, (S)-3-(6′-oxo-6′,8′-dihydro-3′H,7′H-spiro[azetidine-3,2′-[1,4]dioxino[2,3-f]isoindol]-7′-yl)piperidine-2,6-dione]",–,4330,–,–
"O=C1CCC(N2C(=O)c3cc4c(cc3C2=O)OC2(CNC2)CO4)C(=O)N1 (stereo not drawn) [Compound B5, 7′-(2,6-dioxopiperidin-3-yl)-7′-hydro-3′H,6′H-spiro[azetidine-3,2′-[1,4]dioxino[2,3-f]isoindole]-6′,8′-dione]",–,4630,–,–
O=C1CCC(N2Cc3c(ccc4c3OCC3(CN(CC5CCN(c6ccc([C@@H]7c8ccc(O)cc8CC[C@@H]7c7ccccc7)cc6)CC5)C3)O4)C2=O)C(=O)N1 (stereo partly drawn) [THP-B367],–,–,> 100,0.001 to 0.01
O=C1CCC(N2Cc3c(ccc4c3OCC3(CN(CC5CC6(CCN(c7ccc([C@@H]8c9ccc(O)cc9CC[C@@H]8c8ccccc8)cc7)CC6)C5)C3)O4)C2=O)C(=O)N1 (stereo partly drawn) [THP-B368],–,–,> 100,0.001 to 0.01
O=C1CC[C@H](N2Cc3c(ccc4c3OCC3(CCN(CC5CCN(c6ccc([C@@H]7c8ccc(O)cc8CC[C@@H]7c7ccccc7)cc6)CC5)CC3)O4)C2=O)C(=O)N1 [THP-B369],–,–,10 to 100,< 0.001
O=C1CC[C@H](N2Cc3c(ccc4c3OCC3(CCN(CC5CC6(CCN(c7ccc([C@@H]8c9ccc(O)cc9CC[C@@H]8c8ccccc8)cc7)CC6)C5)CC3)O4)C2=O)C(=O)N1 [THP-B371],–,–,< 10,< 0.001
O=C1CC[C@H](N2Cc3c(ccc4c3OCC3(CCN(CC5CCC6(CCN(c7ccc([C@@H]8c9ccc(O)cc9CC[C@@H]8c8ccccc8)cc7)CC6)O5)CC3)O4)C2=O)C(=O)N1 (stereo partly drawn) [THP-B372],–,–,10 to 100,0.001 to 0.01
O=C1CC[C@H](N2Cc3c(ccc4c3OCC3(CCN(CC5COC6(CCN(c7ccc([C@@H]8c9ccc(O)cc9CC[C@@H]8c8ccccc8)cc7)CC6)C5)CC3)O4)C2=O)C(=O)N1 (stereo partly drawn) [THP-B373],–,–,< 10,< 0.001
O=C1CC[C@H](N2Cc3c(ccc4c3OCC3(CCN(CC5COC6(CCN(c7ccc([C@@H]8c9ccc(O)cc9CC[C@@H]8c8ccccc8)cc7)CC6)OC5)CC3)O4)C2=O)C(=O)N1 [THP-B374],–,–,< 10,< 0.001
O=C1CCC(N2Cc3c(ccc4c3OCC3(CN(CC5CCC6(CC5)CN(c5ccc([C@@H]7c8ccc(O)cc8CC[C@@H]7c7ccccc7)cc5)C6)C3)O4)C2=O)C(=O)N1 (stereo partly drawn) [THP-B376],–,–,10 to 100,< 0.001
O=C1CCC(N2Cc3c(ccc4c3OCC3(CN(CC5COC6(CCN(c7ccc([C@@H]8c9ccc(O)cc9CC[C@@H]8c8ccccc8)cc7)CC6)OC5)C3)O4)C2=O)C(=O)N1 (stereo partly drawn) [THP-B377],–,–,10 to 100,< 0.001
"O=C1CC[C@H](N2Cc3cc4c(c(F)c3C2=O)OCC2(CCN(CC3CCN(c5ccc([C@@H]6c7ccc(O)cc7CC[C@@H]6c6ccccc6)cc5)CC3)CC2)O4)C(=O)N1 [THP-B383, (S)-3-(5′-fluoro-1-((1-(4-((1R,2S)-6-hydroxy-2-phenyl-1,2,3,4-tetrahydronaphthalen-1-yl)phenyl)piperidin-4-yl)methyl)-6′-oxo-6′,8′-dihydro-3′H,7′H-spiro[piperidine-4,2′-[1,4]dioxino[2,3-f]isoindol]-7′-yl)piperidine-2,6-dione]",–,–,> 100,> 0.01
O=C1CC[C@H](N2Cc3cc4c(c(F)c3C2=O)OCC2(CCN(CC3CC5(CCN(c6ccc([C@@H]7c8ccc(O)cc8CC[C@@H]7c7ccccc7)cc6)CC5)C3)CC2)O4)C(=O)N1 [THP-B384],–,–,> 100,0.001 to 0.01
O=C1CCC(N2C(=O)c3cc4c(cc3C2=O)OC2(CO4)CN(CC3CC4(CCN(c5ccc([C@@H]6c7ccc(O)cc7CC[C@@H]6c6ccccc6)cc5)CC4)C3)C2)C(=O)N1 (stereo partly drawn) [THP-B385],–,–,> 100,0.001 to 0.01
O=C1CCC(N2Cc3c(ccc4c3OCC3(CN(CC5CCC6(CCN(c7ccc([C@@H]8c9ccc(O)cc9CC[C@@H]8c8ccccc8)cc7)CC6)OC5)C3)O4)C2=O)C(=O)N1 (stereo partly drawn) [THP-B386],–,–,> 100,0.001 to 0.01
"O=C1CC[C@H](N2Cc3cc4c(cc3C2=O)OCC2(CN(CC3CC5(CCN(c6ccc([C@@H]7c8ccc(O)cc8CC[C@@H]7c7ccccc7)cc6)CC5)C3)C2)O4)C(=O)N1 [THP-B394, (S)-3-(1-((7-(4-((1R,2S)-6-hydroxy-2-phenyl-1,2,3,4-tetrahydronaphthalen-1-yl)phenyl)-7-azaspiro[3.5]nonan-2-yl)methyl)-6′-oxo-6′,8′-dihydro-3′H,7′H-spiro[azetidine-3,2′-[1,4]dioxino[2,3-f]isoindol]-7′-yl)piperidine-2,6-dione]",–,–,–,0.001 to 0.01
